# From PMC5681660, “Reduced hepatitis B and D viral entry using clinically applied drugs as novel inhibitors of the bile acid transporter NTCP” (Scientific Reports, 2017)
# Where a name gives a salt, the structure may show the parent alone. Read-outs that look alike come from different tables or passages of the source.
# Tests used:
# human NTCP [1] = molecular target: T1, human NTCP (Homo sapiens, UniProt Q14973); assay: Screening taurocholate uptake assay (96-well, [14C]taurocholate, 10 µM drug)
# T1 sequence (Q14973 1-349): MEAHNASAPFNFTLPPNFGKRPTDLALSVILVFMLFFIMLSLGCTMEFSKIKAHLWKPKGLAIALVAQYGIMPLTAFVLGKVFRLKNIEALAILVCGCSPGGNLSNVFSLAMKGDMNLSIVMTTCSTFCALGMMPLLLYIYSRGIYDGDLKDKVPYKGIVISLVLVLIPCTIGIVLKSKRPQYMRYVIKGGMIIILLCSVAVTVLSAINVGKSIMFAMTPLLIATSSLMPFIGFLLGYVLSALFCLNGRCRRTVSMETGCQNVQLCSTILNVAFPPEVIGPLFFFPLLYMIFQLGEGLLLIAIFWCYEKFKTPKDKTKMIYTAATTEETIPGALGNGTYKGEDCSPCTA
# human NTCP [2] = molecular target: T1, human NTCP; assay: Screening fluorescent competitive Myrcludex B-FITC binding assay (96-well, 10 µM drug)
# [3] = Prestwick library screen, taurocholate uptake, 10 µM drug
# [4] = ranking score beside the functional and binding assay B-scores of the screen
# [5] = Prestwick library screen, Myrcludex B-FITC binding, 10 µM drug
# [6] = Prestwick library screen, 10 µM drug, B-score of taurocholate uptake
# [7] = combined ranking from functional and binding assay B-scores
# [8] = Prestwick library screen, 10 µM drug, B-score of Myrcludex B-FITC binding
# [9] = combined ranking from functional and binding screening assays
# [10] = screen, 10 µM drug, taurocholate uptake
# [11] = screen, 10 µM drug, Myrcludex B-FITC binding
smiles,measurement,setting,value
CC1(C)O[C@@H]2C[C@H]3[C@@H]4C[C@H](F)C5=CC(=O)C=C[C@]5(C)[C@H]4[C@@H](O)C[C@]3(C)[C@]2(C(=O)CO)O1 [Flunisolide],B-score functional assay,human NTCP [1]; [3],0.152
same,Ranking score,human NTCP [1]; [4],805.548
same,B-score binding assay,human NTCP [2]; [5],0.284
CN1C(C)(C)CCCC1(C)C [Pempidine tartrate],B-score functional assay,human NTCP [1]; [6],1.102
same,Ranking score,human NTCP [1]; [7],1065.26
same,B-score binding assay,human NTCP [2]; [8],1.02
C=CCC1(CC(C)C)C(=O)NC(=O)NC1=O [Butalbital],B-score functional assay,human NTCP [1],-0.027
same,Ranking score,human NTCP [1],849.583
same,B-score binding assay,human NTCP [2],2.017
CN1CCC(=C2c3ccccc3C=Cc3ccccc32)CC1 [Cyproheptadine hydrochloride],B-score functional assay,human NTCP [1]; [3],-0.111
same,Ranking score,human NTCP [1]; [4],690.33
same,B-score binding assay,human NTCP [2]; [5],0.492
CC(C)[C@H]1CC[C@H](C(=O)N[C@H](Cc2ccccc2)C(=O)O)CC1 [Nateglinide],Ranking score,human NTCP [1]; [9],461.181
same,B-score functional assay,human NTCP [1]; [10],-1.02
same,B-score binding assay,human NTCP [2]; [11],0.322
CCCCOc1ccc(OCCCN2CCOCC2)cc1 [Pramoxine hydrochloride],B-score functional assay,human NTCP [1]; [6],1.223
same,Ranking score,human NTCP [1]; [7],1022.18
same,B-score binding assay,human NTCP [2]; [8],0.619
NC[C@@H]1O[C@H](O[C@H]2[C@@H](O)[C@H](O[C@@H]3[C@@H](O)[C@H](N)C[C@H](N)[C@H]3O[C@H]3O[C@H](CN)[C@@H](O)[C@H](O)[C@H]3N)O[C@@H]2CO)[C@H](N)[C@@H](O)[C@@H]1O.O=S(=O)(O)O [Neomycin sulfate],B-score functional assay,human NTCP [1]; [6],0.497
same,Ranking score,human NTCP [1]; [7],912.995
same,B-score binding assay,human NTCP [2]; [8],0.524
COc1cc(NC(C)CCCN)c2ncccc2c1 (stereo not drawn) [Primaquine diphosphate],B-score functional assay,human NTCP [1]; [6],4.393
same,Ranking score,human NTCP [1]; [7],1046.51
same,B-score binding assay,human NTCP [2]; [8],0.361
Cl.Cl.Cl.Cl.Cl.NCCNCCNCCNCCN,B-score functional assay,human NTCP [1]; [3],-0.035
same,Ranking score,human NTCP [1]; [4],758.136
same,B-score binding assay,human NTCP [2]; [5],0.678
C[C@@H]1CN([C@H]2CC[C@](C#N)(c3ccc(F)cc3)CC2)CC[C@]1(C(=O)O)c1ccccc1 [Levocabastine hydrochloride],B-score functional assay,human NTCP [1]; [3],-0.031
same,Ranking score,human NTCP [1]; [4],801.329
same,B-score binding assay,human NTCP [2]; [5],1.175
Cc1c(N(C)C)c(=O)n(-c2ccccc2)n1C [Amidopyrine],Ranking score,human NTCP [1]; [9],343.366
same,B-score functional assay,human NTCP [1]; [10],-0.111
same,B-score binding assay,human NTCP [2]; [11],-1.103
CCCCNc1cc(C(=O)O)cc(S(N)(=O)=O)c1Oc1ccccc1 [Bumetanide],B-score functional assay,human NTCP [1]; [6],0.161
same,Ranking score,human NTCP [1]; [7],907.588
same,B-score binding assay,human NTCP [2]; [8],1.043
NC[C@@H]1O[C@H](O[C@H]2[C@@H](O)[C@H](O[C@@H]3[C@@H](O)[C@H](N)C[C@H](N)[C@H]3O[C@H]3O[C@H](CO)[C@@H](O)[C@H](O)[C@H]3N)O[C@@H]2CO)[C@H](N)[C@@H](O)[C@@H]1O [Paromomycin sulfate],B-score functional assay,human NTCP [1]; [6],0.247
same,Ranking score,human NTCP [1]; [7],976.576
same,B-score binding assay,human NTCP [2]; [8],1.613
COC(=O)CCc1ccc(OCC(O)CNC(C)C)cc1 (stereo not drawn) [Esmolol hydrochloride],B-score functional assay,human NTCP [1]; [6],0.736
same,Ranking score,human NTCP [1]; [7],1025.92
same,B-score binding assay,human NTCP [2]; [8],1.099
COc1cc(-c2ccc(=O)[nH]n2)ccc1OC(F)F [Zardaverine],Ranking score,human NTCP [1]; [9],379.335
same,B-score functional assay,human NTCP [1]; [10],-1.701
same,B-score binding assay,human NTCP [2]; [11],0.49
CSc1ccc2c(c1)C(N1CCN(C)CC1)Cc1ccccc1S2.O=C(O)/C=C\C(=O)O (stereo not drawn) [Methiothepin maleate],Ranking score,human NTCP [1]; [9],441.5
same,B-score functional assay,human NTCP [1]; [10],4.841
same,B-score binding assay,human NTCP [2]; [11],-1.545
CCCC1C(=O)N2C(N(C)C)=Nc3ccc(C)cc3N2C1=O (stereo not drawn) [Azapropazone],B-score functional assay,human NTCP [1],-0.788
same,Ranking score,human NTCP [1],190.672
same,B-score binding assay,human NTCP [2],-1.852
C#C[C@]1(O)CC[C@H]2[C@@H]3CCC4=CCCC[C@@H]4[C@H]3CC[C@@]21C [Lynestrenol],B-score functional assay,human NTCP [1]; [6],2.662
same,Ranking score,human NTCP [1]; [7],897.58
same,B-score binding assay,human NTCP [2]; [8],0.007
CC1CC(OC(=O)c2ccccc2O)CC(C)(C)C1 (stereo not drawn) [Homosalate],B-score functional assay,human NTCP [1]; [3],0.284
same,Ranking score,human NTCP [1]; [4],811.615
same,B-score binding assay,human NTCP [2]; [5],0.177
"OCC(O)CN1CCN(c2ccccc2)CC1 (racemic) [Dropropizine (R,S)]",B-score functional assay,human NTCP [1]; [3],0.232
same,Ranking score,human NTCP [1]; [4],761.407
same,B-score binding assay,human NTCP [2]; [5],0.054
O=C(O)Cc1sc(-c2ccccc2)nc1-c1ccc(Cl)cc1 [Fentiazac],Ranking score,human NTCP [1]; [9],402.269
same,B-score functional assay,human NTCP [1]; [10],-1.501
same,B-score binding assay,human NTCP [2]; [11],0.475
COc1cc(N)c(Cl)cc1C(=O)NC1CCN(Cc2ccccc2)CC1 [Clebopride maleate],B-score functional assay,human NTCP [1]; [3],0.453
same,Ranking score,human NTCP [1]; [4],697.485
same,B-score binding assay,human NTCP [2]; [5],-0.092
CN1C[C@H](C(=O)N[C@]2(C)O[C@@]3(O)[C@@H]4CCCN4C(=O)[C@H](Cc4ccccc4)N3C2=O)C[C@@H]2c3cccc4[nH]cc(c34)C[C@H]21.CN1C[C@H](C(=O)N[C@]2(C)O[C@@]3(O)[C@@H]4CCCN4C(=O)[C@H](Cc4ccccc4)N3C2=O)C[C@@H]2c3cccc4[nH]cc(c34)C[C@H]21.O=C(O)C(O)C(O)C(=O)O [Dihydroergotamine tartrate],Ranking score,human NTCP [1]; [9],379.284
same,B-score functional assay,human NTCP [1]; [10],0.679
same,B-score binding assay,human NTCP [2]; [11],-1.57
CNC(C)(C)Cc1ccccc1.CNC(C)(C)Cc1ccccc1.O=S(=O)(O)O [Mephentermine hemisulfate],B-score functional assay,human NTCP [1]; [3],-0.093
same,Ranking score,human NTCP [1]; [4],728.877
same,B-score binding assay,human NTCP [2]; [5],0.758
CC(=O)OCC(=O)NCCCOc1cccc(CN2CCCCC2)c1 [Roxatidine Acetate HCl],Ranking score,human NTCP [1]; [9],297.686
same,B-score functional assay,human NTCP [1]; [10],-2.305
same,B-score binding assay,human NTCP [2]; [11],0.239
CN1CCN(C2=Nc3ccccc3Oc3ccc(Cl)cc32)CC1 [Loxapine succinate],Ranking score,human NTCP [1]; [9],424.073
same,B-score functional assay,human NTCP [1]; [10],-1.397
same,B-score binding assay,human NTCP [2]; [11],0.552
O=C(O)c1cccnc1Nc1cccc(C(F)(F)F)c1 [Niflumic acid],B-score functional assay,human NTCP [1]; [3],0.166
same,Ranking score,human NTCP [1]; [4],675.036
same,B-score binding assay,human NTCP [2]; [5],-0.054
Clc1ccc(C(Cn2ccnc2)OCc2csc3c(Cl)cccc23)c(Cl)c1 (stereo not drawn) [Sertaconazole nitrate],B-score functional assay,human NTCP [1]; [3],-0.094
same,Ranking score,human NTCP [1]; [4],730.855
same,B-score binding assay,human NTCP [2]; [5],0.814
CN(C)C(=N)N=C(N)N [Metformin hydrochloride],B-score functional assay,human NTCP [1]; [3],-0.092
same,Ranking score,human NTCP [1]; [4],761.884
same,B-score binding assay,human NTCP [2]; [5],1.144
Cn1c(=O)c2[nH]cnc2n(C)c1=O [Theophylline monohydrate],Ranking score,human NTCP [1]; [9],321.683
same,B-score functional assay,human NTCP [1]; [10],-1.998
same,B-score binding assay,human NTCP [2]; [11],0.205
CN(C/C=C/C#CC(C)(C)C)Cc1cccc2ccccc12 [Terbinafine],B-score functional assay,human NTCP [1]; [3],3.878
same,Ranking score,human NTCP [1]; [4],842.5
same,B-score binding assay,human NTCP [2]; [5],-0.07
C/C(=C(/CCO)SSCC1CCCO1)N(C=O)Cc1cnc(C)nc1N.Cl (stereo not drawn) [Fursultiamine Hydrochloride],B-score functional assay,human NTCP [1],1.116
same,Ranking score,human NTCP [1],897.109
same,B-score binding assay,human NTCP [2],0.087
CC(=O)OCC(=O)[C@@]1(O)CC[C@H]2[C@@H]3CCC4=CC(=O)CC[C@]4(C)[C@@]3(F)[C@@H](O)C[C@@]21C [Fludrocortisone acetate],Ranking score,human NTCP [1]; [9],430.869
same,B-score functional assay,human NTCP [1]; [10],0.011
same,B-score binding assay,human NTCP [2]; [11],-0.826
OC(c1cc(C(F)(F)F)nc2c(C(F)(F)F)cccc12)C1CCCCN1 (stereo not drawn) [Mefloquine hydrochloride],B-score functional assay,human NTCP [1]; [3],1.734
same,Ranking score,human NTCP [1]; [4],704.329
same,B-score binding assay,human NTCP [2]; [5],-0.336
CN(Cc1ccc(C(C)(C)C)cc1)Cc1cccc2ccccc12 [Butenafine Hydrochloride],B-score functional assay,human NTCP [1]; [6],1.115
same,Ranking score,human NTCP [1]; [7],986.495
same,B-score binding assay,human NTCP [2]; [8],0.435
COC(=O)Nc1nc2ccc([S+]([O-])c3ccccc3)cc2[nH]1 (stereo not drawn) [Oxfendazol],B-score functional assay,human NTCP [1]; [6],0.699
same,Ranking score,human NTCP [1]; [7],1042.44
same,B-score binding assay,human NTCP [2]; [8],1.363
Cc1nc2ccccn2c(=O)c1CCN1CCC(C(=O)c2ccc(F)cc2)CC1 [Pirenperone],B-score functional assay,human NTCP [1]; [3],-0.092
same,Ranking score,human NTCP [1]; [4],829.554
same,B-score binding assay,human NTCP [2]; [5],3.342
CNC(C)CCC=C(C)C.CNC(C)CCC=C(C)C.O=C(O)[C@@H](O)[C@H](O)[C@H](O)[C@@H](O)C(=O)O [Isometheptene mucate],Ranking score,human NTCP [1]; [9],319.923
same,B-score functional assay,human NTCP [1]; [10],-0.726
same,B-score binding assay,human NTCP [2]; [11],-0.672
CCOc1ccccc1OCC1CNCCO1 (stereo not drawn) [Viloxazine hydrochloride],B-score functional assay,human NTCP [1],-1.513
same,Ranking score,human NTCP [1],214.483
same,B-score binding assay,human NTCP [2],-0.914
COc1cccc2c1C(=O)c1c(O)c3c(c(O)c1C2=O)C[C@@](O)(C(=O)CO)C[C@@H]3O[C@H]1C[C@H](N)[C@H](O)[C@H](C)O1 [Doxorubicin hydrochloride],B-score functional assay,human NTCP [1],0.02
same,Ranking score,human NTCP [1],577.781
same,B-score binding assay,human NTCP [2],-0.177
CN(C)CCOC1=Cc2ccccc2Sc2ccc(Cl)cc21 [Zotepine],B-score functional assay,human NTCP [1]; [6],0.249
same,Ranking score,human NTCP [1]; [7],950.167
same,B-score binding assay,human NTCP [2]; [8],1.26
